Active and inactive are the calls of the source. The calls are words filed in the database; no cut-off is given here.
Key:
[1] = Cytotoxicity against mouse N2a-cl3 cells assessed as cell viability after 2 days by calcein AM assay; type: cell-based; conditions: n2a-cl3, 48 h
[2] = Decrease in PrPc expression on mouse N2a-cl3 cell surface after 2 days by ELISA; type: functional, cell-based
[3] = Cmax in CD-1 mouse brain at 10 mg/kg, po administered via gavage as single dose by LC/MS/MS analysis; type: ADME, organism-based; parameters: dose 10 mg/kg, route oral
Liver microsome [4] = test: Half life in human liver microsomes at 1 uM by LC/MS/MS analysis; type: ADME
Liver microsome [5] = test: Metabolic stability in human liver microsomes assessed as compound remaining at 1 uM after 60 mins by LC/MS/MS analysis; type: ADME; conditions: 1 h
[6] = Cmax in CD-1 mouse plasma at 10 mg/kg, po administered via gavage as single dose by LC/MS/MS analysis; type: ADME, organism-based; parameters: dose 10 mg/kg, route oral
[7] = Cmax in CD-1 mouse brain at 10 mg/kg, ip administered as single dose by LC/MS/MS analysis; type: ADME, organism-based; parameters: dose 10 mg/kg, route intraperitoneal
[8] = Half life in mouse liver microsomes at 1 uM by LC/MS/MS analysis; type: ADME, Microsome
[9] = Metabolic stability in mouse liver microsomes assessed as compound remaining at 1 uM after 60 mins by LC/MS/MS analysis; type: ADME, Microsome; conditions: 1 h
T98G [10] = test: cells; conditions: Homo sapiens, 48 h
T98G [11] = test: Cytotoxicity against human T98G cells assessed as decrease in cell viability after 2 days by calcein AM assay; type: cell-based; conditions: 48 h, read-out: LC50 (the source's name)

NC(=O)c1ccccc1NC(=O)c1cccnc1N1CCCCC1
Activity [1]: Non-toxic | inhibition [2]: Active | Cmax [3]: < 0.1 µM | t1/2 (Liver microsome [4]): 16.7 min | Stability (Liver microsome [5]): 8.3% | Cmax [6]: < 0.1 µM | Cmax [7]: ≤ 16.2 µM | t1/2 [8]: 2.8 min | Stability [9]: 0% | EC50 (T98G [10]): 1.02 µM

CCc1nnc(NC(=O)c2ccoc2COc2ccccc2)s1
Cmax [3]: < 0.1 µM | Cmax [6]: < 0.1 µM | Cmax [7]: ≤ 16.2 µM | EC50 (T98G [10]): 2.24 µM

CCOC(=O)c1[nH]c2c(c1C)C(=O)CC(c1ccccc1Cl)C2 (centres undefined)
Cmax [3]: < 0.1 µM | Cmax [6]: < 0.1 µM | Cmax [7]: ≤ 16.2 µM | EC50 (T98G [10]): 0.45 µM

CN(C)c1ccc2c(c1)OC(N)=C(C#N)C2c1cccs1 (centres undefined)
EC50 (T98G [10]): 0.22 µM

COc1ccc(Cl)cc1NS(=O)(=O)c1ccc(N2CCCC2=O)cc1
Cmax [3]: < 0.1 µM | Cmax [6]: < 0.1 µM | Cmax [7]: ≤ 16.2 µM | EC50 (T98G [10]): 0.51 µM

COc1ccc(CC(=O)NCc2ccccc2)cc1
CC50 (T98G [11]): > 10 µM | EC50 (T98G [10]): 3.13 µM

Cc1nc2ncccn2c1-c1csc(Nc2ccc(Cl)cc2)n1
EC50 (T98G [10]): 2.44 µM

CCN(CC)c1ccc2c(c1)OC(N)=C(C#N)C2c1ccccc1 (centres undefined)
Cmax [3]: < 0.1 µM | Cmax [6]: < 0.1 µM | Cmax [7]: ≤ 16.2 µM | EC50 (T98G [10]): 0.17 µM

CC1=CC(C)(C)N(S(=O)(=O)c2ccc(C)cc2)c2cc(C)ccc21
Cmax [3]: < 0.1 µM | Cmax [6]: < 0.1 µM | Cmax [7]: ≤ 16.2 µM | EC50 (T98G [10]): 3.77 µM

COc1cc(C(=O)c2cc(Cl)ccc2N)cc(OC)c1OC
Cmax [3]: < 0.1 µM | Cmax [6]: < 0.1 µM | Cmax [7]: ≤ 16.2 µM | EC50 (T98G [10]): 0.09 µM

Cc1ccn2c(-c3csc(Nc4ccc(N(C)C)cc4)n3)c(C)nc2c1
EC50 (T98G [10]): 0.11 µM

COc1ccc(Cl)cc1C(=O)N1CC(=O)Nc2ccccc21
Cmax [3]: < 0.1 µM | Cmax [6]: < 0.1 µM | Cmax [7]: ≤ 16.2 µM | EC50 (T98G [10]): 0.65 µM

CCOC(=O)c1[nH]c2c(c1C)C(=O)CC(c1ccco1)C2 (centres undefined)
Activity [1]: Non-toxic | inhibition [2]: Active | EC50 (T98G [10]): 0.68 µM

CCOC(=O)c1[nH]c2c(c1C)C(=O)CC(c1ccccc1)C2 (centres undefined)
Cmax [3]: < 0.1 µM | Cmax [6]: < 0.1 µM | Cmax [7]: ≤ 16.2 µM | EC50 (T98G [10]): 0.11 µM

O=C(Cc1ccc(Cl)cc1)NCc1ccccc1
CC50 (T98G [11]): > 10 µM | EC50 (T98G [10]): > 10 µM

COc1cccc(N2CCN(C(=O)c3cc(C)ccc3OC)CC2)c1
Cmax [3]: < 0.1 µM | t1/2 (Liver microsome [4]): 4.5 min | Stability (Liver microsome [5]): 1% | Cmax [6]: < 0.1 µM | Cmax [7]: ≤ 16.2 µM | t1/2 [8]: 1.6 min | Stability [9]: 0% | EC50 (T98G [10]): 0.27 µM

CCOC(=O)c1[nH]c(C)c(C(=O)c2ccc(C)cc2)c1C
Cmax [3]: < 0.1 µM | Cmax [6]: < 0.1 µM | Cmax [7]: ≤ 16.2 µM | EC50 (T98G [10]): 0.53 µM

CCOc1ccc2c(c1)C(C)=CC(C)(C)N2S(=O)(=O)c1ccc(C)cc1
Cmax [3]: < 0.1 µM | Cmax [6]: < 0.1 µM | Cmax [7]: ≤ 16.2 µM | EC50 (T98G [10]): 0.69 µM

COc1ccc(S(=O)(=O)N2CCOc3ccccc32)cc1
Cmax [3]: < 0.1 µM | t1/2 (Liver microsome [4]): 2 min | Stability (Liver microsome [5]): 0% | Cmax [6]: < 0.1 µM | Cmax [7]: ≤ 16.2 µM | t1/2 [8]: 0.7 min | Stability [9]: 0% | EC50 (T98G [10]): 1.32 µM

O=C(Nc1ccncc1)C1CCCN1S(=O)(=O)c1ccc2ccccc2c1 (centres undefined)
Cmax [3]: < 0.1 µM | Cmax [6]: < 0.1 µM | Cmax [7]: ≤ 16.2 µM | EC50 (T98G [10]): 1.52 µM

O=C(Cc1ccc(-c2ccccc2)cc1)NCc1ccccc1
Cmax [3]: < 0.1 µM | t1/2 (Liver microsome [4]): 10.3 min | Stability (Liver microsome [5]): 4.6% | Cmax [6]: < 0.1 µM | CC50 (T98G [11]): > 10 µM | Cmax [7]: ≤ 16.2 µM | t1/2 [8]: 18.5 min | Stability [9]: 5.8% | EC50 (T98G [10]): 0.44 µM

CN(C)c1ccc2c(c1)OC(N)=C(C#N)C2c1cccc(F)c1 (centres undefined)
Cmax [3]: < 0.1 µM | Cmax [6]: < 0.1 µM | Cmax [7]: ≤ 16.2 µM | EC50 (T98G [10]): 0.03 µM

O=C(Nc1ccc(I)cn1)c1cccc(F)c1
Cmax [3]: < 0.1 µM | Cmax [6]: < 0.1 µM | Cmax [7]: ≤ 16.2 µM | EC50 (T98G [10]): 0.45 µM

COC(=O)c1[nH]c2c(c1C)C(=O)CC(c1cccs1)C2 (centres undefined)
Cmax [3]: < 0.1 µM | Cmax [6]: < 0.1 µM | Cmax [7]: ≤ 16.2 µM | EC50 (T98G [10]): 0.41 µM

Cc1cc(C)c(S(=O)(=O)NCc2ccncc2)c(C)c1
Cmax [3]: < 0.1 µM | Cmax [6]: < 0.1 µM | Cmax [7]: ≤ 16.2 µM | EC50 (T98G [10]): 4.13 µM

COc1cc(OC)cc(C(=O)Nc2ccc(I)cn2)c1
Activity [1]: Non-toxic | inhibition [2]: Active | Cmax [3]: < 0.1 µM | Cmax [6]: < 0.1 µM | Cmax [7]: ≤ 16.2 µM | EC50 (T98G [10]): 1.31 µM

Cc1nc2sccn2c1-c1csc(Nc2ccc(N(C)C)nc2)n1
Cmax [3]: < 0.1 µM | Cmax [6]: < 0.1 µM | Cmax [7]: ≤ 16.2 µM | EC50 (T98G [10]): 0.22 µM

COc1ccc(Cl)cc1C(=O)N1CCN(c2cccc(Cl)c2)CC1
Cmax [3]: < 0.1 µM | t1/2 (Liver microsome [4]): 6 min | Stability (Liver microsome [5]): 0.1% | Cmax [6]: < 0.1 µM | Cmax [7]: ≤ 16.2 µM | t1/2 [8]: 3 min | Stability [9]: 0.1% | EC50 (T98G [10]): 0.17 µM

CN(C)c1ccc2c(c1)OC(N)=C(C#N)C2c1ccccc1 (centres undefined)
Cmax [3]: < 0.1 µM | Cmax [6]: < 0.1 µM | Cmax [7]: ≤ 16.2 µM

N#Cc1c(NC(=O)CCc2cccs2)sc2c1CCCC2
Cmax [3]: < 0.1 µM | Cmax [6]: < 0.1 µM | Cmax [7]: ≤ 16.2 µM | EC50 (T98G [10]): 0.15 µM

O=C(Cc1ccc(Br)cc1)NCc1ccccc1
CC50 (T98G [11]): > 10 µM | EC50 (T98G [10]): 2.33 µM

Cc1c(C(=O)OC(C)C)[nH]c2c1C(=O)CC(c1cccs1)C2 (centres undefined)
Cmax [3]: < 0.1 µM | t1/2 (Liver microsome [4]): 9.9 min | Stability (Liver microsome [5]): 1.6% | Cmax [6]: < 0.1 µM | Cmax [7]: ≤ 16.2 µM | t1/2 [8]: 3.2 min | Stability [9]: 0.1% | EC50 (T98G [10]): 0.24 µM

COc1ccccc1C(=O)N1CCN(c2ccccc2OC)CC1
Cmax [3]: < 0.1 µM | Cmax [6]: < 0.1 µM | Cmax [7]: ≤ 16.2 µM | EC50 (T98G [10]): 3.24 µM

CCOc1ccc(Nc2nc(-c3c(C)nc4sccn34)cs2)cc1
Cmax [3]: < 0.1 µM | t1/2 (Liver microsome [4]): 9.6 min | Stability (Liver microsome [5]): 1.5% | Cmax [6]: < 0.1 µM | Cmax [7]: ≤ 16.2 µM | t1/2 [8]: 4.5 min | Stability [9]: 0.5% | EC50 (T98G [10]): 0.03 µM

CCOc1ccccc1C1C(C#N)=C(N)Oc2cc(N(C)C)ccc21 (centres undefined)
Cmax [3]: < 0.1 µM | t1/2 (Liver microsome [4]): 9.7 min | Stability (Liver microsome [5]): 1.3% | Cmax [6]: < 0.1 µM | Cmax [7]: ≤ 16.2 µM | t1/2 [8]: 1.9 min | Stability [9]: 0.1%

Source: ChEMBL document CHEMBL3120106, “Novel compounds lowering the cellular isoform of the human prion protein in cultured human cells” (Bioorg Med Chem, 2014)
